The results in this text go back to patent US12384775B2, “Pyrimid-2-yl-pyrazole compounds as IRAK inhibitors” (Rigel Pharmaceuticals, Inc., priority 2022, dated 2025).

The target in one data set is IRAK1 (Homo sapiens, UniProt P51617). Nature of the data set: IRAK1 Adapta assay. Format: biochemical. The following applies: for pIC50: n = 1, read-out: IRAK4 IC50 Adapta (n = 1). Here is the method: • Bar-coded Corning, low volume, white 384-well plate (Corning Cat. #4512) • Test Compounds: The Test Compounds are screened in 1% DMSO (final) in the well. For 10 point titrations, 3-fold serial dilutions 10 μM. • Substrate/Kinase Mixture: The 2×IRAK1/Histone H3 (1-20) peptide mixture is prepared in 50 mM HEPES pH 7.5, 0.01% BRIJ-35, 10 mM MgCl2, 1 mM EGTA. • ATP Solution: All ATP Solutions are diluted to a 4× working concentration in water. • ATP Km apparent is previously determined using a radiometric assay except when no substrate is available in which case an Adapta assay is conducted. • Detection Mix: The Detection Mix is prepared in TR-FRET Dilution Buffer. The Detection mix consists of EDTA (30 mM), Eu-anti-ADP antibody (6 nM) and ADP tracer. The detection mix contains the EC60 concentration of tracer for 5-150 μM ATP. IRAK1 Method • 1. 100 nL—100× Test Compound in 100% DMSO • 2. 2.4 μL—30 mM HEPES • 3. 2.5 μL—4×ATP Solution • 4. 5 μL—2× Substrate/Kinase Mixture
The final 10 μL Kinase Reaction consists of 3.17-42 ng IRAK1 and 100 μM Histone H3 (1-20) peptide in 32.5 mM HEPES pH 7.5, 0.005% BRIJ-35, 5 mM MgCl2, 0.5 mM EGTA. • 5. 30-second plate shake • 6. 1-minute centrifuge at 1000× g • 7. 60-minute Kinase Reaction incubation at room temperature • 8. 5 μL—Detection Mix • 9. 30-second plate shake • 10. 1-minute centrifuge at 1000× g • 11. 60-minute Detection Mix equilibration at room temperature • 12. Read on fluorescence plate reader and analyze the data

The nature of data set [1]: Plasma protein binding, equilibrium dialysis (RED), rat. Format: in vitro ADME. As to conditions: for recovery at 5 μM / fraction unbound at 5 μM: Rat plasma, drug 5 μM; for fraction unbound at 5 μM: read-out: % bound (converted); for Free Fraction in Whole Blood Assay, Rat: plasma free fraction. Here is the method:
(§1) Brain and plasma drug binding were performed by equilibrium dialysis using the Rapid Equilibrium Dialysis (RED) device. Briefly, 300 μL of plasma or brain homogenate (1 brain/3 buffer) containing drug (5 μM) was equilibrated (4-18 h) against 500 μL of buffered saline. After incubation, the concentration of drug in plasma/brain homogenate and buffer was determined by LC-MS/MS.
(§2) Recovery is calculated by determining the total amount of drug in 50 μL of plasma and 50 μL buffer after the incubation and comparing that value to the amount of drug in 50 μL of a plasma sample that was not incubated. For the protein binding assay, drug was added to the plasma and this plasma was added to one side of the dialysis device while buffer was added to the other. After filing the plasma chamber of the equilibrium device, a 50 μL aliquot of plasma was mixed with 50 μL of buffer and then quenched with stop reagent. Drug recovery=(Drug buffer+Drug plasma)/(drug in initial plasma)

Data set [2] in a line: Plasma protein binding, equilibrium dialysis (RED), mouse. The following applies: drug 5 μM; for recovery at 5 μM: low due to hydrolysis; for fraction unbound at 5 μM: read-out: % bound (converted). Type of data set: in vitro ADME. Here is the method:
as §1, §2

Data set [3] deals with TLR7-induced TNF-α production in human primary dendritic cells (DC). The experiment in a line: Gardiquimod-induced TNF-α in human monocyte-derived dendritic cells (DC). Type of data set: cell-based. As to conditions: Dendritic cell, gardiquimod 4 μg/ml, read-out: Cell Assays IC50, TNFα (DC, Gard). Here is the method:
Human peripheral blood mononuclear cells (PBMC) (400 million) were allowed to adhere in a T-175 flask containing 15 ml RPMI media (10% FBS) for 2 hours at 37° C., 5% CO2 to capture the monocytes.
After 2 hours, the media including floating cells was carefully removed and 12 ml of fresh RPMI media (10% FBS) containing GM-CSF (100 ng/ml) and IL-4 (20 ng/ml) were added to the adherent monocytes. The monocytes were allowed to differentiate for 7 days at 37° C., 5% CO2 for 7 days, supplementing with fresh GM-CSF and IL-4 after 3 days.
The differentiated dendritic cells (DC) were harvested by centrifugation (1200 rpm/5 min). The DCs were primed at 37° C., 5% CO2 for 24 hours with 50 ng/ml IFN-7 (1000 U/ml) at 50K/well in 100 μL/well of fresh RPMI media (10% FBS) in a white clear bottom 96 well plate.
Compound was serially diluted in DMSO from 2.5 mM in 4-fold dilutions, and then diluted 1:125 in RPMI 1640 complete media with 10% FBS. The primed DCs were pre-incubated with test compound for 1 hour at 37° C., 5% CO2 by adding 100 μl of RPMI media containing 2× concentrated test compound per well (0.5% final DMSO concentration).
The DCs were stimulated with gardiquimod (10 μL per well of 20× concentrated gardiquimod solution in RPMI media to give a final concentration of 4 μg/ml) at 37° C., 5% CO2 for an additional 18 hours. […] TNF-α was quantitated by ELISA, following the kit protocol.

Data set [4] concerns TLR dependent cytokine release in human blood. Nature of the data set: Human whole blood assays, average of IL-6 Gard and TNFα LPS. Format: cell-based. The following applies: read-out: Human Whole Blood Assays (IC5050), Average. Here is the method: To assess the effect of whole blood on the potency of compound I-1 and Comparison-1, the compounds were evaluated for their inhibitory potential on TLR dependent cytokine release in human blood. Freshly drawn peripheral blood from healthy volunteers was incubated with test compound and stimulated overnight with LPS or Gardiquimod. The serum was isolated after centrifugation and TNF-α and IL-6 were measured by ELISA.

pEC50, pIC50: −log10 of the molar value.

Chain of IRAK1 (P51617 whole entry): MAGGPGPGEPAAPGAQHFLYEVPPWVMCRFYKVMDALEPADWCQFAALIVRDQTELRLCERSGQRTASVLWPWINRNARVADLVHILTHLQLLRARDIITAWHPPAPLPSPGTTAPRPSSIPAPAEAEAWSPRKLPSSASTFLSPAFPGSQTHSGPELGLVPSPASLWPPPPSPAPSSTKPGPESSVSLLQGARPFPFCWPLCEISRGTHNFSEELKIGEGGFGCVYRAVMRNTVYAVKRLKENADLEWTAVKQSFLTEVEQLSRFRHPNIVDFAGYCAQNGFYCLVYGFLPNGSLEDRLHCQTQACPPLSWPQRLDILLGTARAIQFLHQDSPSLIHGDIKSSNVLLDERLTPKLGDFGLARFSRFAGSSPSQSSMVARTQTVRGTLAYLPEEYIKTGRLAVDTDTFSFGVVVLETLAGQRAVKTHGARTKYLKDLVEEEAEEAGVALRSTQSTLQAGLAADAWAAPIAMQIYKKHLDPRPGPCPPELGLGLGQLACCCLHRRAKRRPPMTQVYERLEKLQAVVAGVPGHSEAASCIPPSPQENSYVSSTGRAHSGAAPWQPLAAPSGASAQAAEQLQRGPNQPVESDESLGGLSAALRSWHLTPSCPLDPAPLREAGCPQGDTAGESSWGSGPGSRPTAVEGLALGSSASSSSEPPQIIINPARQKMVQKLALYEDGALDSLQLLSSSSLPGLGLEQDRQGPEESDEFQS

On to `CCO[C@H]1CC[C@H](n2cc(NC(=O)c3csc(-c4cn[nH]c4)n3)c(-c3ncccn3)n2)CC1` [Compound I-1, N-(1-((1r,4r)-4-ethoxycyclohexyl)-3-(pyrimidin-2-yl)-1H-pyrazol-4-yl)-2-(1H-pyrazol-4-yl)thiazole-4-carboxamide], for which, at IRAK1, the pEC50 is 8.40 and the pIC50 was 8.40. Moreover, in data set [1], the recovery at 5 μM turned out to be 73.9%; the fraction unbound at 5 μM was 0.037; the “Free Fraction in Whole Blood Assay, Rat” value is 3.7%. Besides, in data set [2], the recovery at 5 μM came out at 23.6% and the fraction unbound at 5 μM was 0.085. Moreover, in data set [3], the pIC50 is 8.30. For the same compound, the pIC50 in data set [4] is 6.76.

`CCO[C@H]1CC[C@H](n2cc(NC(=O)c3csc(-c4cn[nH]c4)n3)c(-c3nc(F)ccc3F)n2)CC1` [Comparison-1, reference compound]: the pIC50 on IRAK1 was 7.85; in data set [3], 7.72; in data set [4], 5.85. For the same compound, the recovery at 5 μM amounted to 68.3% in data set [1] and 10% in data set [2]. Besides, the fraction unbound at 5 μM in data set [1] is 0.007; in data set [2] it was 0.022. Besides, in data set [1], the “Free Fraction in Whole Blood Assay, Rat” value stood at 0.7%.
